{"source": "patent US8227421B2", "about": "“Fluorinated GHRH antagonists” (University of Miami, priority 2009, dated 2012)", "test_system": "PC-3 human hormone-independent prostate cancer", "assay": "Effect of treatment with GH-RH antagonists on PC-3 human prostate cancer xenografts in nude mice", "format": "in vivo", "conditions": "male nude mice, s.c. PC-3 xenografts, 2 ug/day s.c.", "experimental": "Male nude mice were implanted s.c. with 3 mm3 pieces of PC-3 human hormone-independent prostate cancer tissue on both flanks. When tumors reached a volume of approximately 50 mm3, the mice were divided into 14 experimental groups with 8 to 10 animals in each group and received single daily injections for 28 as follows: 1. Control (vehicle solution); 2. P-12211 (2 μg/day s.c.); 3. P-12307 (2 μg/day s.c.); 4. P-12317 (2 μg/day s.c.); 5. P-12408 (2 μg/day s.c.); 6. P-12409 (2 μg/day s.c.); 7. P-12457 (2 μg/day s.c.); 8. P-12473 (2 μg/day s.c.); 9. P-12479 (2 μg/day s.c.); 10. P-12600 (2 μg/day s.c.); 11. P-12601 (2 μg/day s.c.); 12. P-12602 (2 μg/day s.c.); 13. P-12603 (2 μg/day s.c.); and 14. P-12610 (2 μg/day s.c.).\nThe inhibitory effect of P-12473, P-12479, P-12600, P-12601, P-12602, and P-12610 were statistically significant (p<0.001).\nEffect of Treatment with GH-RH Antagonists on PC-3 Human Prostate Cancer Xenografts in Nude Mice"}
{"substance": "[PhAc^0-Tyr^1, D-Arg^2, Cpa^6, Ala^8, Har^9, Fpa5^10, His^11, Orn^12, Abu^15, His^20, Orn^21, Nle^27, D-Arg^28, Har^29, Ada^30]hGH-RH(1-30)NH2 [Peptide P-12610]", "values": [{"measurement": "Tumor Growth after 4 weeks (%)", "setting": "single daily injections for 28", "value": 474.98, "unit": "%"}, {"measurement": "Tumor growth inhibition after 4 weeks (%)", "setting": "single daily injections for 28, versus control", "value": 77.78, "unit": "%"}]}
